Laboratory results: PMC7996536, “Optimization of Tilmicosin-Loaded Nanostructured Lipid Carriers Using Orthogonal Design for Overcoming Oral Administration Obstacle” (Pharmaceutics, 2021)
Values after ≈ are worked out from the molar mass of the structure shown. Counter-ions that a name gives are not always drawn. Like-named read-outs stand apart in the source and are kept apart here. Each block holds one molecule with its values, some of them ahead of it.

Assays:
[1] = In vitro drug release by the dialysis bag method; assay type: physicochemical; conditions: 48 h
Protocol: The in vitro drug release behavior of TMS-NLCs was carried out over 48 h by the dialysis bag method. Briefly, TMS-NLCs or the corresponding active pharmaceutical ingredient (API) of TMS (3 mL, 10 mg/mL) was added into a dialysis bag (MWCO of 100 kD, 16 mm, and 0.79 mL/cm), immersed in the simulated gastric or intestinal juice (500 mL) at 37 °C, and stirred under the magnetic stirrer with 100 rpm. At the set time, the samples (1 mL) were taken out and substituted by the same volume of fresh receptor fluids, and the TMS concentrations were detected by HPLC.
In this study, the concentrations of TMS in various media were detected with HPLC (Thermo U3000, Thermo Fisher Scientific, New York, NY, USA) with a C18 Reverse-phase column (5 µm, 4.6 mm inner diameter × 250 mm length, Agilent, Palo Alto, CA, USA). The mobile phase was acetonitrile–tetrahydrofuran–water–n-dibutylamine phosphate buffer salt solution (12:5.5:80:2.5; v/v). The column temperature was 30 °C, the injection volume was 20 µL, the UV detection wavelength was 291 nm, and the flow rate was 1 mL/min. The samples were filtered through a 0.22 µm filter membrane before HPLC analysis. The concentration of TMS was calculated using the standard curve equation (y = 31.314x − 2.0603, R^2 = 0.9999) for HPLC analysis of TMS, which had the good linear pattern over a range from 1 to 20 µg/mL as reported previously.

[2] = Bidirectional transport of API and TMS-NLCs across cell monolayers; assay type: in vitro ADME, canine; conditions: dog, MDCK; for Papp A→B at 4 h, 10 µg/mL / Papp B→A at 4 h, 10 µg/mL: 37 °C; for efflux ratio at 4 h, 10 µg/mL: read-out: ER
Protocol: (§1) MDCK and MDCK-chAbcg2/Abcb1 cells were seeded on 12-well Transwell® polycarbonate inserts at a density of 2 × 10^5 cells per well to constitute in vitro cell monolayer models. The apical side (AP) of the insert was filled with 0.5 mL medium, and the basolateral (BL) side was filled with 1.5 mL medium. The medium was replaced every two days. It took 5~7 days to form an intact cell monolayer.
(§2) The permeability efficiency was evaluated by comparing the bidirectional transport between API and TMS-NLCs. Briefly, apical-to-basolateral (AP→BL) and basolateral-to-apical (BL→AP) transport across monolayers was conducted by adding 10 µg/mL API or TMS-NLCs to donor compartments and incubating at 37 °C for 4 h. Then, the samples from receiver compartments were taken to analyze TMS concentrations by HPLC.
(§3) TMS is the substrate of glycoprotein (P-gp). To evaluate the inhibition effect of TMS-NLCs on P-gp mediated efflux, cell monolayers were incubated with the P-gp inhibitor verapamil (100 µM) for 1 h, and then, the medium was replaced with a mixture of verapamil and API or TMS-NLCs on one side and co-incubated for 4 h for bidirectional transport assay.
(§4) The efflux ratio (ER) and net efflux ratio (NER) values were obtained from the following equation [27, 28]:ER = Papp(BL→AP)/Papp(AP→BL) NER = ER(MDCK-chAbcg2/Abcb1)/ER(MDCK).

[3] = tested on: MDCK-chAbcg2/Abcb1 cell monolayers; test: as above; assay type: in vitro ADME, canine; conditions: ER(MDCK-chAbcg2/Abcb1)/ER(MDCK)
Protocol: as §1, §2, §3, §4

chAbcg2/Abcb1 (P-gp) = test: as above; assay type: in vitro ADME, canine; conditions: dog, MDCK-chAbcg2/Abcb1; for Papp A→B at 4 h, 10 µg/mL / Papp B→A at 4 h, 10 µg/mL: 37 °C; for efflux ratio at 4 h, 10 µg/mL: read-out: ER
Protocol: as §1, §2, §3, §4

[4] = tested on: MDCK-chAbcg2/abcb1 monolayers; test: Transport mechanism of TMS-NLCs across monolayers (tracers, 4 °C, endocytosis inhibitors)
Protocol: To investigate the transport mechanism of TMS-NLCs, propranolol (100 µM) and lucifer yellow (225 µM) as the tracers were added to the AP side and co-incubated with TMS-NLCs for 4 h. The tracers that passed through monolayers to the BL side were quantified. The transport experiments of TMS-NLCs across MDCK-chAbcg2/abcb1 monolayers were also conducted at 4 °C. To get further insights into the transcellular transport of TMS-NLCs, the monolayers were pre-incubated with various endocytosis inhibitors on the AP side for 1 h and then co-incubated with TMS-NLCs for 4 h. The determination of TMS in the samples collected from the BL side was analyzed by HPLC.

MDCK cells = test: MTT cell viability; assay type: cell-based, canine; conditions: up to 50 µg/mL, 4 h, Figure 4A
Protocol: (§5) MTT assay was used to evaluate cell viability. Cells were seeded on 96-well plates 1 × 10^4 cells per well, cultured for 24 h until 90% confluent, and exposed to different concentrations of NLCs for 4 h. Then, the medium was replaced with 20 µL MTT (5 mg/mL) and 180 µL serum-free medium. After incubation for 4 h, the medium containing MTT was substituted with 150 µL DMSO. The absorbance of formazan was measured by a microplate reader (BIO-RAD, Hercules, CA, USA) at 490 nm. Untreated cells were taken as the control. The cytotoxicity was expressed as the cell viability compared with the untreated cells. Similarly, the cytotoxicity of endocytosis inhibitors were also evaluated, and the concentrations of each drug were chosen on the basis of the published literature, and EIPA (50 µM), chlorpromazine (30 µM), dynasore (80 µM), and MβCD (2 mM) were used in the present study.

MDCK-chAbcg2/Abcb1 cells = test: MTT cell viability; assay type: cell-based, canine; conditions: up to 50 µg/mL, 4 h, Figure 4B
Protocol: as §5

[5] = tested on: Escherichia coli ATCC 25922; test: Microdilution broth MIC; assay type: cell-based; conditions: ATCC25922, E. coli
Protocol: (§6) Microdilution broth assay was carried out to evaluate the antibacterial activity of API and TMS-NLCs according to the guidelines of the CLSI. The minimal inhibitory concentration (MIC) was determined against 2 strains of Gram-positive bacteria and 2 strains of Gram-negative bacteria. Staphylococcus aureus QWJAB25 and Streptococcus agalactiae A27 were isolated from milk in a scale farm located in Yangzhou, Jiangsu Province in 2019. The Escherichia coli used in this study was ATCC 25922. The Salmonella Typhimurium strain 1344 was donated by Associate Professor Jian Lin from College of Life Sciences, Nanjing Agricultural University.

[6] = tested on: Salmonella Typhimurium strain 1344; test: Microdilution broth MIC; assay type: cell-based; conditions: Salmonella enterica; S. Typhimurium
Protocol: as §6

[7] = tested on: Staphylococcus aureus QWJAB25; test: Microdilution broth MIC; assay type: cell-based; conditions: S. aureus
Protocol: as §6

[8] = tested on: Streptococcus agalactiae A27; test: Microdilution broth MIC; assay type: cell-based; conditions: S. agalactiae
Protocol: as §6

[9] = Permeability of cell monolayers (tracers); assay type: in vitro ADME, canine; conditions: dog, 37 °C, lucifer yellow 225 µM, propranolol 100 µM
Protocol: as §1
(§7) During the cultivation, the integrity of cell monolayers was evaluated by the transepithelial electrical resistance (TEER) values measured with Epithelial Volt-Ohm Meter (Millipore, Burlington, MA, USA). Monolayers with TEER values over 500 and 1700 Ω·cm^2 of MDCK and MDCK-chAbcg2/Abcb1 cells respectively were used for drug transport experiments, and the TEER values were also checked after the transport experiment to guarantee the integrity of cell monolayers. TEER = (Rtotal − Rblank) × A (Ω·cm^2)
(§8) After a week of cultivation, the AP side was filled with 0.5 mL propranolol (100 µM) or lucifer yellow (225 µM) and 1.5 mL of Hank’s solution on the BL side for 4 h at 37 °C. The solution on the BL side was collected for fluorescence analysis. The detection wavelengths were 428/540 nm ([…]) and 290/330 nm (propranolol), respectively. The apparent permeability coefficient (Papp) was calculated according to the following equation [24]:Papp = dQ/(dt * AC0) where dQ/dt is the transport rate in the receiver solution, A is the membrane surface area, and C0 is the initial concentration in the donor compartment.

MDCK cell monolayers = test: Permeability of cell monolayers (tracers); assay type: in vitro ADME, canine; conditions: AP to BL, 4 h, 37 °C, lucifer yellow 225 µM, propranolol 100 µM
Protocol: as §1, §7, §8

[10] = tested on: MDCK-chAbcg2/Abcb1 cell monolayers; test: Permeability of cell monolayers (tracers); assay type: in vitro ADME, canine; conditions: AP to BL, 4 h, 37 °C, lucifer yellow 225 µM, propranolol 100 µM
Protocol: as §1, §7, §8

in vitro release ([1]; SGF, pH 1.2, 37 °C): ~80%
in vitro release ([1]; SIF, pH 6.8, 37 °C): ~80%
Papp A→B at 4 h, 10 µg/mL ([2]; with verapamil (100 µM)): 0.38 ± 0.02 ×10⁻⁶ cm/s
Papp B→A at 4 h, 10 µg/mL ([2]; with verapamil (100 µM)): 0.41 ± 0.04 ×10⁻⁶ cm/s
efflux ratio at 4 h, 10 µg/mL ([2]; with verapamil (100 µM)): 1.06
Papp A→B at 4 h, 10 µg/mL ([2]; without verapamil): 0.42 ± 0.04 ×10⁻⁶ cm/s
Papp B→A at 4 h, 10 µg/mL ([2]; without verapamil): 0.53 ± 0.02 ×10⁻⁶ cm/s
efflux ratio at 4 h, 10 µg/mL ([2]; without verapamil): 1.27
NER ([3]; with verapamil (100 µM)): 0.94
NER ([3]; without verapamil): 2.07
Papp A→B at 4 h, 10 µg/mL (chAbcg2/Abcb1 (P-gp); with verapamil (100 µM)): 0.39 ± 0.04 ×10⁻⁶ cm/s
Papp B→A at 4 h, 10 µg/mL (chAbcg2/Abcb1 (P-gp); with verapamil (100 µM)): 0.39 ± 0.07 ×10⁻⁶ cm/s
efflux ratio at 4 h, 10 µg/mL (chAbcg2/Abcb1 (P-gp); with verapamil (100 µM)): 1
Papp A→B at 4 h, 10 µg/mL (chAbcg2/Abcb1 (P-gp); without verapamil): 0.4 ± 0.02 ×10⁻⁶ cm/s
Papp B→A at 4 h, 10 µg/mL (chAbcg2/Abcb1 (P-gp); without verapamil): 1.06 ± 0.03 ×10⁻⁶ cm/s
efflux ratio at 4 h, 10 µg/mL (chAbcg2/Abcb1 (P-gp); without verapamil): 2.63
Papp at 4 °C [4]: under the detection limit
MIC [5]: 16 µg/mL (≈ 18.4 µM)
MIC [6]: 16 µg/mL (≈ 18.4 µM)
MIC [7]: < 0.5 µg/mL
MIC [8]: 16 µg/mL (≈ 18.4 µM)
Molecule: CC[C@H]1OC(=O)C[C@@H](O)[C@H](C)[C@@H](O[C@@H]2O[C@H](C)[C@@H](O)[C@H](N(C)C)[C@H]2O)[C@@H](CCN2C[C@H](C)C[C@H](C)C2)C[C@@H](C)C(=O)/C=C/C(C)=C/[C@@H]1CO[C@@H]1O[C@H](C)[C@@H](O)[C@@H](OC)[C@H]1OC [API, Tilmicosin]
cell viability compared to untreated cells (MDCK cells): not significantly decreased
cell viability compared to untreated cells (MDCK-chAbcg2/Abcb1 cells): not significantly decreased

Papp at 4 h, 100 µM ([9]; MDCK, AP to BL): 16.2 ± 0.65 ×10⁻⁶ cm/s
Papp at 4 h, 100 µM ([9]; MDCK-chAbcg2/Abcb1, AP to BL): 17.6 ± 0.64 ×10⁻⁶ cm/s
Papp of tracer co-incubated with TMS-NLCs versus without [4]: no significant difference
Molecule: CC(C)NCC(O)COc1cccc2ccccc12 (centres unmarked) [Propranolol, propranolol hydrochloride]

Molecule: lucifer yellow
Papp (MDCK cell monolayers): 0.22 ± 0.06 ×10^−6 cm/s
Papp [10]: 0.13 ± 0.01 ×10^−6 cm/s
Papp of tracer co-incubated with TMS-NLCs versus without ([4]; AP side, 4 h, Figure 5A): no significant difference
